The values that follow come from US20050228041A1, “Protective and therapeutic uses for tocotrienols” (priority 2003, published 2005).

In one test the test system is HT4 neurons. In words: Glutamate-induced death of HT4 neurons (propidium iodide exclusion flow cytometry, cell counts). Type of test: cell-based, mouse. The protocol:
(§1) Referring to FIG. 1, primary rat immature cortical neurons (A-C) or HT4 (D) were either treated or not with α-tocotrienol (as indicated) for 5 min and challenged with either glutamate (10 mM; A); L-homocysteic acid (1 mM; B); or buthionine sulfoximine (0.15 mM; BSO) for 24 h. […] Cells were counted at 12, 24 and 36 h after glutamate challenge.
(§2) First, we tested for the involvement of 12-LOX in the execution of glutamate-induced death in our model. We started by using the 12-LOX specific inhibitor baicalein or BL15. Referring to FIG. 3, HT4 neurons (A) were either treated or not with a-tocotrienol (250 nM) or […] (2.5 μM, 12-lipoxygenase inhibitor) for 5 min and then challenged with glutamate (10 mM). Cell viability was determined using propidium iodide (PI) exclusion flow cytometry assay. PI−=live; PI+=dead. Rat primary immature cortical neurons (B-D) were either treated or not with α-tocotrienol (100 nM) or BL15 (2.5 μM) for 5 min and challenged either with glutamate (10 mM; B); L-homocysteic acid (1 mM; C) or buthionine sulfoximine (0.15 mM; BSO; D) for 24 h. Arachidonic acid, 50 μM for 24h. BL15, Baicalein 5,6,7-trihydroxy-flavone.
(§3) Cell culture. Mouse hippocampal HT4 cells, were grown in Dulbecco's Modified Eagle Medium supplemented with 10% fetal calf serum, penicillin (100 U/ml) and streptomycin (100 μg/ml) at 37° C. in a humidified atmosphere containing 95% air and 5% CO2. HT4 cells were provided by Dr. D. E. Koshland Jr. (University of California at Berkeley) (Sen et al., 2000). Primary cortical neurons. Cells were isolated from the cerebral cortex of rat feti (Sprague Dawley; day 17 of gestation) or mouse feti (C57BL/6 mice, day 14 of gestation) as described (Murphy et al., 1990). For 12-LOX knockout studies, neurons were isolated from the feti of B6.129S2-Alox15^tm1Fun (Jackson Laboratory, […].). After isolation from the brain, cells were counted and seeded in culture plates at a density of 2-3×10^6 cells per 35 mm plate (Murphy et al., 1990). Cells were grown in Minimal Essential Medium (MEM) supplemented with 10% heat-inactivated fetal bovine serum, 40 μM cystine and antibiotics (100 μg/ml streptomycin, 100 units/ml penicillin, 0.25 μg/ml amphotericin). Cultures were maintained at 37° C. in 5% CO2 and 95% air in a humidified incubator. All experiments were carried out 24 h after plating.
(§4) Treatment with neurotoxic agents. Immediately before experiments, culture media was replaced with fresh medium supplemented with serum and antibiotics. Glutamate (10 mM) was added to the media as aqueous solution (Han et al., 1997a; Sen et al., 2000; Tirosh et al., 2000). […] Other agents used to induce death in neuronal cells have been described in the pertinent figure legends.
(§5) Vitamin E treatment. Stock solutions (10^3X of working concentration) of α-tocotrienol was prepared in ethanol. […]
(§6) Determination of cell viability. Viability of HT4 cells was determined using propidium iodide exclusion assay using the flow cytometer as described by us previously (Sen et al., 2000; Tirosh et al., 2000). Because primary neuronal cultures tend to aggregate during flow cytometry, the viability of these cells was assessed by measuring lactate dehydrogenase (LDH) leakage (Han et al., 1997a) from cells to media 24 h following glutamate treatment using in vitro toxicology assay kit from Sigma Chemical Co. (St. Louis, Mo., USA). […]
Background: A flow cytometer gives signals particle by particle.

Another test concerns primary neurons. In words: Cellular glutathione (GSH) in glutamate-treated primary neurons (HPLC-coulometric). Type of test: cell-based, rat. The conditions noted are these: glutamate 10 mM; α-tocotrienol 100 nM or BL15 2.5 μM. The protocol:
as §2, with “5,6,7-trihydroxy-flavone. […] B-E: †, lower compared to the corresponding control non-treated group; *, higher compared to the corresponding toxin-treated group. P<0.05.” for “5,6,7-trihydroxy-flavone.”
Glutathione assay. Glutathione (GSH) was detected using a HPLC-coulometric electrode array detector (Coularray Detector—model 5600 with 12 channels; ESA Inc., Chelmsford, Mass.). […] Glutathione was detected at channels set at following potentials: I) 600 mV, II) 700 mV; and II) 800 mV. Signals from channel set at 800 mV were used for quantification (Sen et al., 2002).

In test [1] the test system is primary rat immature cortical neurons. In words: Neurotoxin-induced loss of viability of primary immature cortical neurons (LDH leakage). Type of test: cell-based. To be noted: 24 h. The procedure:
as §1, §2, §3, §4, §5, §6
(LDH in the medium is a marker of cell lysis.)

For test [2], the system named is rat primary cortical neurons. In words: Imaging of glutamate-induced degeneration of rat primary cortical neurons (immunofluorescence, live cell imaging). Type of test: cell-based. To be noted: glutamate 10 mM; α-tocotrienol 250 nM or BL15 2.5 μM 5 min before.
Procedure: Phase contrast images were collected once every 15 mins for 18 h from 8 h after glutamate treatment.
For immunofluorescence microscopy, primary cultures of rat cortical neurons were plated on 35 mm plates pre-coated with poly-L-lysine. After 24 h, cell were treated with α-tocotrienol or BL15 for 5 minutes and then challenged with glutamate or exposed to glutamate. After 24 h of glutamate exposure, cells were washed thrice in PBS, fixed for 10 minutes at room temperature in 4% paraformaldehyde, and permeabilized with PBS-T (PBS containing 0.2% Triton X-100) for 20 minutes at room temperature. Samples were then rinsed 3× with PBS-T and blocking (2% BSA in PBS-T) was done for 1 h at room temperature. After blocking, samples were incubated overnight at 4° C. with the primary antibody (anti-neurofilament 200 (1:100, Sigma St. Louis, Mo.) or neuronal class III α-tubulin (1:500, Covance Berkeley, Calif.)}. After washing with PBS (3×, 5 min each), the samples were incubated with Alexa Fluor 488 conjugated goat anti-mouse or anti-rabbit (Molecular Probes Eugene, Oreg.) secondary antibody for 45 minutes at room temperature. This was followed by three PBS washes, and mounting in aqueous medium. Fluorescent images were collected using a Zeiss Axiovert 200M microscope. Images were acquired using Axiovision 3.1.
For live cell imaging, primary cultures of rat cortical neurons were plated on 35 mm plates pre-coated with poly-L-lysine. […] Images were collected once every 15 minutes using a specialized phase contrast Zeiss optics suited for imaging cells growing in routine culture plates.
The next test concerns TTP knock-out mice. In words: Fertility of tocopherol transport protein (TTP) knock-out mice. The conditions noted are these: mouse, in vivo. The text has this: The uptake and transport of dietary or pharmaceutically supplemented tocopherol from the gut to various parts of the body is directed by TTP. In order to understand and distinguish the important roles of tocopherols and tocotrienols in mammals, knock out mice have been produced in which expression of TTP has been ablated. Interruption of TTP results in loss of fertility in these mice which make it impossible to breed and thus maintain the line for further study.

Test [3] deals with T1, hydroxy-3 methylglutaryl coenzyme A reductase (Homo sapiens, UniProt P04035).
T1 sequence (P04035 1-888): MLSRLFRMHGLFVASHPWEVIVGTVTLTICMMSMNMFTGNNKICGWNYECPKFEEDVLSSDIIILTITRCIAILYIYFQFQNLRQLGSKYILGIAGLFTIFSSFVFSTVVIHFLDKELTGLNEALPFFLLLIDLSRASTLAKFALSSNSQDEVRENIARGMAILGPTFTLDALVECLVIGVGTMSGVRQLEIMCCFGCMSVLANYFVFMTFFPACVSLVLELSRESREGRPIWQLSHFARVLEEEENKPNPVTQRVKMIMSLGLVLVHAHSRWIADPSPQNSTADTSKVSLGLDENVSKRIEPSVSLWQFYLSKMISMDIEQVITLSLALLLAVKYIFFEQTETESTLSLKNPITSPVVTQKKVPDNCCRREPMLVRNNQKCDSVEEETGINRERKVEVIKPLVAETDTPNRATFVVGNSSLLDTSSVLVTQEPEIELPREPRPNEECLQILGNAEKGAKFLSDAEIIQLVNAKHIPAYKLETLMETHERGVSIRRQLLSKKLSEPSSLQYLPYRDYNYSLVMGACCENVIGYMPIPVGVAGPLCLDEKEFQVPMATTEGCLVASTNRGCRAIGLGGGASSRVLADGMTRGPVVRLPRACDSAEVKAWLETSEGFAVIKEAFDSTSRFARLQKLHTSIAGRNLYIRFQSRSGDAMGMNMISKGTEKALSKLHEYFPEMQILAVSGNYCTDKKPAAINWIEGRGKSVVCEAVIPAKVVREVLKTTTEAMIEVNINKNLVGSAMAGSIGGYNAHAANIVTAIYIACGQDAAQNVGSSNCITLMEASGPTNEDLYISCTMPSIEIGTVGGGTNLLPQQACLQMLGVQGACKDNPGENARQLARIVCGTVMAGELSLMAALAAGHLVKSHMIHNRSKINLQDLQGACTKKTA
The conditions noted are these: micromolar amounts; Pearce et al.; cited from earlier work.

The target in another test is T2, alphaTTP (Rattus norvegicus, UniProt P41034).
T2 sequence (P41034 1-278): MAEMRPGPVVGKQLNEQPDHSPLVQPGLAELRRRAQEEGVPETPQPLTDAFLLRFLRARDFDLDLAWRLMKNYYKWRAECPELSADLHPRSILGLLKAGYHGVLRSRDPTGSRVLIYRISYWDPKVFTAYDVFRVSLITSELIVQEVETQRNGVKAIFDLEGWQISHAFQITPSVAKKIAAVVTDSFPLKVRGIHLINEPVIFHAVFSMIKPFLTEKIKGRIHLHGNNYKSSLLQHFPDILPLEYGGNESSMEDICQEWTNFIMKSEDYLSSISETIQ
The conditions noted are these: competition with alpha-[3H]tocopherol; FEBS Lett 1997; cited from earlier work.

Test [4] has as its system primary cardiac fibroblatsts (CF) isolated from adult mouse ventricle. In words: Cardiac fibroblast death induced by arachidonic acid + buthionine sulfoximine (phase contrast imaging). Type of test: cell-based. To be noted: arachidonic acid 50 microM + BSO, 250 nM tocotrienol, 24 h, 5% O2. The protocol: Assays were performed using primary cardiac fibroblatsts (CF) isolated from adult (5-6 week old) mouse ventricle. Cells were cultured under 5% O2 conditions. Five days after isolation cells were treated with arachidonic acid (50 microM)+buthionine sulfoximine in the presence or absence of 250 nM tocotrienol for 24h. Phase contrast imaging was performed using a Zeiss live cell imaging microscope.
Referring to FIG. 8, isolated cardiac fibroblasts cells were treated five days after isolation with arachidonic acid (AA)(50 microM)±buthionine sulfoximine (BS)) in the presence or absence of 250 nM tocotrienol (T3) for 24 hours. Phase contrast imaging was performed using a Zeiss live cell imaging microscope.

Entries after “also recorded” stand apart in the source; their conditions may differ.

Take `O=c1cc(-c2ccccc2)oc2cc(O)c(O)c(O)c12` [BL15, 5,6,7-trihydroxy-flavone, reference compound]: in the test with HT4 neurons (glutamate 10 mM, BL15 2.5 μM 5 min before), the “protection against glutamate induced death of HT4 cells” value is “clearly protected”. The “cellular glutathione (GSH) in protected glutamate-treated primary neurons” value with primary neurons is given as “loss of cellular glutathione; also recorded: lowered GSH levels”. The “protection of primary neurons against toxicity triggered by L-homocysteic acid or BSO” value in test [1] (L-homocysteic acid 1 mM or BSO 0.15 mM, BL15 2.5 μM 5 min before) is “protected”. In test [1] (glutamate 10 mM, α-tocotrienol 100 nM or BL15 2.5 μM 5 min before), the “protection against glutamate-induced death of primary neurons” value is “protected neurons against glutamate challenge; also recorded: clearly protected”. Also, the “glutamate-induced degeneration of the neural network and neuronal growth” value in test [2] is “protection”.

tocotrienol: the “protection against glutamate-induced toxicity / loss of cell viability of HT4” value with HT4 neurons (glutamate 10 mM, tocotrienol 100 nM (nM levels) 5 min before) was “prevented glutamate-induced toxicity”. The “proliferation / growth rate of glutamate-treated HT4 cells” value in the test on HT4 neurons (tocotrienol 100 nM (nM levels), cells counted 12, 24 and 36 h after glutamate) is “proliferate at a rate comparable to cells not treated with glutamate”. The “fertility of TTP knock-out mice” value with TTP knock-out mice is listed as “reversal of TTP-dependent infertility”. The “activity of hydroxy-3 methylglutaryl coenzyme A reductase” value in test [3] is “suppress the activity”. Further, the “relative affinity of alpha TTP” value on alphaTTP is on record as “relatively low affinity”. For the same compound, in test [4], the “cell death induced by AA+BSO” value is recorded as “completely blocked cell death”.
